Test results from US8796256B2 (Janssen Pharmaceutica NV, priority 2010, dated 2014).

The compounds below were run against T1, ERR1 (also known as ERR-α or ERR-1) (Homo sapiens, UniProt P11474) (assay: TR-FRET assay (disruption of co-activator peptide binding to ERR1 LBD)). Conditions: 6 nM 6His-ERR1LBD, 6 nM GST-SRC-2 peptide; average of 3 independent experiments.
T1 sequence (P11474 193-421 limits assumed): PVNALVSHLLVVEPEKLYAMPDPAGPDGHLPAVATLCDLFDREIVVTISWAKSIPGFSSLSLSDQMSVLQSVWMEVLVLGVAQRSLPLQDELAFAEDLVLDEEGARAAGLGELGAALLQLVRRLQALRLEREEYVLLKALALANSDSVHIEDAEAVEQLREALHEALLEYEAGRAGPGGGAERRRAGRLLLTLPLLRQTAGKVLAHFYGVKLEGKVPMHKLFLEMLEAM
Assay type: biochemical
In short: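 His-tagged ERR1 ligand-binding domain and GST-labelled SRC-2 peptide, each 6 nM, equilibrated at 25° C for 4-18 h in Tris pH 8/Hepes/KCl/DTT/delipidated BSA buffer. Compound-induced loss of co-activator binding read as Eu cryptate→XL665 energy transfer; values from hyperbolic curve fits averaged over 3 independent runs.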

EC50 [nM] | SMILES
42 | O=C(O)C(C1CCOCC1)N1C(=O)S/C(=C\c2ccc3c(cnn3Cc3ccc(Cl)cc3C(F)(F)F)c2)C1=O (centres unmarked) [Compound 219, [(5Z)-5-({1-[4-Chloro-2-(trifluoromethyl)benzyl]-1H-indazol-5-yl}methylidene)-2,4-dioxo-1,3-thiazolidin-3-yl](tetrahydro-2H-pyran-4-yl)acetic acid]
74 | CN1CCC(C(=O)O)(N2C(=O)S/C(=C\c3ccc4c(cnn4Cc4ccc(Cl)cc4C(F)(F)F)c3)C2=O)CC1 [Compound 220, 4-[(5Z)-5-({1-[4-Chloro-2-(trifluoromethyl)benzyl]-1H-indazol-5-yl}methylidene)-2,4-dioxo-1,3-thiazolidin-3-yl]-1-methylpiperidine-4-carboxylic acid]
61 | O=C(O)[C@H](CO)N1C(=O)S/C(=C\c2ccc3c(cnn3Cc3ccc(Cl)cc3C(F)(F)F)c2)C1=O [Compound 221, (2S)-2-[(5Z)-5-({1-[4-Chloro-2-(trifluoromethyl)benzyl]-1H-indazol-5-yl}methylidene)-2,4-dioxo-1,3-thiazolidin-3-yl]-3-hydroxypropanoic acid]
58 | O=C(O)[C@@H](CO)N1C(=O)S/C(=C\c2ccc3c(cnn3Cc3ccc(Cl)cc3C(F)(F)F)c2)C1=O [Compound 222, (2R)-2-[(5Z)-5-({1-[4-Chloro-2-(trifluoromethyl)benzyl]-1H-indazol-5-yl}methylidene)-2,4-dioxo-1,3-thiazolidin-3-yl]-3-hydroxypropanoic acid]
55 | Cn1cnc(CC(C(=O)O)N2C(=O)S/C(=C\c3ccc4c(cnn4Cc4ccc(Cl)cc4C(F)(F)F)c3)C2=O)c1 (centres unmarked) [Compound 223, 2-[(5Z)-5-({1-[4-Chloro-2-(trifluoromethyl)benzyl]-1H-indazol-5-yl}methylidene)-2,4-dioxo-1,3-thiazolidin-3-yl]-3-(1-methyl-1H-imidazol-4-yl)propanoicacid]
22 | O=C(O)C(C1CCNCC1)N1C(=O)S/C(=C\c2ccc3c(cnn3Cc3ccc(Cl)cc3C(F)(F)F)c2)C1=O (centres unmarked) [Compound 224, [(5Z)-5-({1-[4-Chloro-2-(trifluoromethyl)benzyl]-1H-indazol-5-yl}methylidene)-2,4-dioxo-1,3-thiazolidin-3-yl](piperidin-4-yl)acetic acid]
32 | O=C(O)C(Cc1cccnc1)N1C(=O)S/C(=C\c2ccc3c(cnn3Cc3ccc(Cl)cc3C(F)(F)F)c2)C1=O (centres unmarked) [Compound 225, 2-[(5Z)-5-({1-[4-Chloro-2-(trifluoromethyl)benzyl]-1H-indazol-5-yl}methylidene)-2,4-dioxo-1,3-thiazolidin-3-yl]-3-pyridin-3-ylpropanoic acid]
30 | COC(=O)C1(N2C(=O)S/C(=C\c3ccc4c(cnn4Cc4ccc(Cl)cc4C(F)(F)F)c3)C2=O)CCOCC1 [Compound 226, Methyl 4-[(5Z)-5-({1-[4-chloro-2-(trifluoromethyl)benzyl]-1H-indazol-5-yl}methylidene)-2,4-dioxo-1,3-thiazolidin-3-yl]tetrahydro-2H-pyran-4-carboxylate]
53 | O=C1S/C(=C\c2ccc3c(cnn3Cc3ccc(Cl)cc3C(F)(F)F)c2)C(=O)N1C1(C(=O)O)CCOCC1 [Compound 227, 4-[(5Z)-5-({1-[4-Chloro-2-(trifluoromethyl)benzyl]-1H-indazol-5-yl}methylidene)-2,4-dioxo-1,3-thiazolidin-3-yl]etrahydro-2H-pyran-4-carboxylic acid]
49 | O=C(O)C(CC1CCNCC1)N1C(=O)S/C(=C\c2ccc3c(cnn3Cc3ccc(Cl)cc3C(F)(F)F)c2)C1=O (centres unmarked) [Compound 228, 2-[(5Z)-5-({1-[4-Chloro-2-(trifluoromethyl)benzyl]-1H-indazol-5-yl}methylidene)-2,4-dioxo-1,3-thiazolidin-3-yl]-3-piperidin-4-ylpropanoic acid]
76 | O=C(O)C(Cc1c[nH]cn1)N1C(=O)S/C(=C\c2ccc3c(cnn3Cc3ccc(Cl)cc3C(F)(F)F)c2)C1=O (centres unmarked) [Compound 229, 2-[(5Z)-5-({1-[4-Chloro-2-(trifluoromethyl)benzyl]-1H-indazol-5-yl}methylidene)-2,4-dioxo-1,3-thiazolidin-3-yl]-3-(1H-imidazol-4-yl)propanoic acid]
16 | O=C1S/C(=C\c2ccc3c(cnn3Cc3ccc(Cl)cc3C(F)(F)F)c2)C(=O)N1C1(C(=O)O)CCNCC1 [Compound 230, 4-[(5Z)-5-({1-[4-Chloro-2-(trifluoromethyl)benzyl]-1H-indazol-5-yl}methylidene)-2,4-dioxo-1,3-thiazolidin-3-yl]piperidine-4-carboxylic acid]
46 | Nc1nc(CN2C(=O)S/C(=C\c3ccc4c(cnn4Cc4ccc(Cl)cc4C(F)(F)F)c3)C2=O)c[nH]1 [Compound 231, (5Z)-3-[(2-Amino-1H-imidazol-4-yl)methyl]-5-({1-[4-chloro-2-(trifluoromethyl)benzyl]-1H-indazol-5-yl}methylidene)-1,3-thiazolidine-2,4-dione]
107 | COC(=O)C1(N2C(=O)S/C(=C\c3ccc4c(cnn4Cc4ccc(Cl)cc4C(F)(F)F)c3)C2=O)CCCC1 [Compound 232, Methyl 1-[(5Z)-5-({1-[4-chloro-2-(trifluoromethyl)benzyl]-1H-indazol-5-yl}methylidene)-2,4-dioxo-1,3-thiazolidin-3-yl]cyclopentanecarboxylate]
57 | O=C1S/C(=C\c2ccc3c(cnn3Cc3ccc(Cl)cc3C(F)(F)F)c2)C(=O)N1C1(C(=O)O)CCCC1 [Compound 233, 1-[(5Z)-5-({1-[4-Chloro-2-(trifluoromethyl)benzyl]-1H-indazol-5-yl}methylidene)-2,4-dioxo-1,3-thiazolidin-3-yl]cyclopentanecarboxylic acid]
99 | COC(=O)C1(N2C(=O)S/C(=C\c3ccc4c(cnn4Cc4ccc(Cl)cc4C(F)(F)F)c3)C2=O)CCC1 [Compound 234, Methyl 1-[(5Z)-5-({1-[4-chloro-2-(trifluoromethyl)benzyl]-1H-indazol-5-yl}methylidene)-2,4-dioxo-1,3-thiazolidin-3-yl]cyclobutanecarboxylate]
45 | O=C1S/C(=C\c2ccc3c(cnn3Cc3ccc(Cl)cc3C(F)(F)F)c2)C(=O)N1C1(C(=O)O)CCC1 [Compound 235, 1-[(5Z)-5-({1-[4-Chloro-2-(trifluoromethyl)benzyl]-1H-indazol-5-yl}methylidene)-2,4-dioxo-1,3-thiazolidin-3-yl]cyclobutanecarboxylic acid]
111 | CC(C)(C)OC(=O)COCCN1C(=O)S/C(=C\c2ccc3c(cnn3Cc3ccc(Cl)cc3C(F)(F)F)c2)C1=O [Compound 236, tert-Butyl {2-[(5Z)-5-({1-[4-chloro-2-(trifluoromethyl)benzyl]-1H-indazol-5-yl}methylidene)-2,4-dioxo-1,3-thiazolidin-3-yl]ethoxy}acetate]
98 | O=C(O)COCCN1C(=O)S/C(=C\c2ccc3c(cnn3Cc3ccc(Cl)cc3C(F)(F)F)c2)C1=O [Compound 237, {2-[(5Z)-5-({1-[4-Chloro-2-(trifluoromethyl)benzyl]-1H-indazol-5-yl}methylidene)-2,4-dioxo-1,3-thiazolidin-3-yl]ethoxy}acetic acid]
1800 | COC(=O)CN1C(=O)S/C(=C\c2ccc3c(ccn3Cc3ccc(C(F)(F)F)cc3C(F)(F)F)c2)C1=O [Compound 238, Methyl {(5Z)-5-[(1-{[2,4-bis(trifluoromethyl)phenyl]methyl}-1H-indol-5-yl)methylidene]-2,4-dioxo-1,3-thiazolidin-3-yl}acetate]
100 | CN(C)CCCN1C(=O)S/C(=C\c2ccc3c(ccn3Cc3ccc(C(F)(F)F)cc3C(F)(F)F)c2)C1=O [Compound 239, (5Z)-5-[(1-{[2,4-Bis(trifluoromethyl)phenyl]methyl}-1H-indol-5-yl)methylidene]-3-[3-(dimethylamino)-propyl]-1,3-thiazolidine-2,4-dione]
70 | CN(C)CCN1C(=O)S/C(=C\c2ccc3c(ccn3Cc3ccc(C(F)(F)F)cc3C(F)(F)F)c2)C1=O [Compound 240, (5Z)-5-[(1-{[2,4-Bis(trifluoromethyl)-phenyl]methyl}-1H-indol-5-yl)methylidene]-3-[2-(dimethylamino)ethyl]-1,3-thiazolidine-2,4-dione]
100 | O=C(CN1C(=O)S/C(=C\c2ccc3c(ccn3Cc3ccc(C(F)(F)F)cc3C(F)(F)F)c2)C1=O)N1CCOCC1 [Compound 241, (5Z)-5-[(1-{[2,4-Bis(trifluoromethyl)phenyl]methyl}-1H-indol-5-yl)methylidene]-3-(2-morpholin-4-yl-2-oxoethyl)-1,3-thiazolidine-2,4-dione]
100 | O=C1S/C(=C\c2ccc3c(ccn3Cc3ccc(C(F)(F)F)cc3C(F)(F)F)c2)C(=O)N1CCO [Compound 242, (5Z)-5-[(1-{[2,4-Bis(trifluoromethyl)phenyl]methyl}-1H-indol-5-yl)methylidene]-3-(2-hydroxyethyl)-1,3-thiazolidine-2,4-dione]
50 | CN(C)CCN1C(=O)S/C(=C\c2ccc3c(ccn3Cc3ccc(Cl)cc3C(F)(F)F)c2)C1=O [Compound 243, (5Z)-5-[(1-{[4-Chloro-2-(trifluoromethyl)phenyl]methyl}-1H-indol-5-yl)methylidene]-3-[2-(dimethylamino)ethyl]-1,3-thiazolidine-2,4-dione]
50 | CN(C)CCCN1C(=O)S/C(=C\c2ccc3c(ccn3Cc3ccc(Cl)cc3C(F)(F)F)c2)C1=O [Compound 244, (5Z)-5-[(1-{[4-Chloro-2-(trifluoromethyl)phenyl]methyl}-1H-indol-5-yl)methylidene]-3-[3-(dimethylamino)-propyl]-1,3-thiazolidine-2,4-dione]
